Earlier results, collected in patent publication US20080026050A1, “SOLID DOSE FORMULATIONS OF A THROMBIN RECEPTOR ANTAGONIST” (priority 2006, published 2008).

Target: T1, thrombin receptor (Homo sapiens, UniProt P25116)
T1 sequence (P25116 22-425): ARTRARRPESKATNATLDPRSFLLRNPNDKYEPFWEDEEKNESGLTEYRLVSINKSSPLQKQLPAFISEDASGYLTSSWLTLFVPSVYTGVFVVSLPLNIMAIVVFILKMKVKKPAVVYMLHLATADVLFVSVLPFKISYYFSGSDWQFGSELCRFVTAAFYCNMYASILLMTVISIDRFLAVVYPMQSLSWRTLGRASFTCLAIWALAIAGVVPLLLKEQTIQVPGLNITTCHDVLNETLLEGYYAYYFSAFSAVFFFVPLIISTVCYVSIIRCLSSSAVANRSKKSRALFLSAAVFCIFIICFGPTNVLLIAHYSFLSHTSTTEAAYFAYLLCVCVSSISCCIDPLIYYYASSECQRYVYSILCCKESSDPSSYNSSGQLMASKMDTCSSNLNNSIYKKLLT
Conditions: general statement, refers to U.S. application Ser. No. 10/412,982

Compound: CCOC(=O)N[C@@H]1CC[C@@H]2[C@@H](C1)C[C@H]1C(=O)O[C@H](C)[C@H]1[C@H]2/C=C/c1ccc(-c2cccc(F)c2)cn1 [COMPOUND 1]
- selectivity: good
- thrombin receptor antagonist activity (potency): good
